From PubChem BioAssay AID1626 (SRMLSC, 2009) come the findings set out here.

This experiment deals with M. tuberculosis H37Rv growth inhibition. In words: M. tuberculosis H37Rv growth inhibitors, H37Rv strain (AID 1626). The conditions noted are these: for IC90: measured here: IC90 against H37Rv; for CC50: measured here: Vero cell cytotoxicity.

A value given as a limit tells only on which side of the number the result lay.

`CC(=O)c1ccc(NC(=O)c2ccc(CNc3c(N4CCOCC4)c(=O)c3=O)cc2)cc1`: the IC50 was 5.81 µM and the IC90 was 6.61 µM.
Regarding `FC(F)(F)c1cccc(Sc2nc(-c3ccccc3)nnc2C(F)(F)F)c1`, the IC50 was 7.32 µM, the IC90 was over 100 µM and the half-maximal cytotoxic concentration (CC50) is over 40 µM.
For `Cc1cc(C)n(-c2nc(SCCN(C)C)c3c4c(sc3n2)CCCC4)n1`, in that order: 4.2 µM, 6.19 µM and 11.6 µM.
Turning to `COC(=O)CSc1nnc(-c2sc3ccccc3c2Cl)o1`, the IC50 is 8.67 µM and the IC90 came out at 36.2 µM.
`O=C(Nc1nnc(C2=COCCO2)o1)c1ccc(Cc2ccccc2)cc1`: the IC50 was 4.49 µM, the IC90 is 10.6 µM and the CC50 is over 40 µM.
In the case of `CCNC(=O)COC(=O)c1ccc(-c2nc3ccccc3s2)s1`, the IC50 is 7.63 µM, the IC90 was determined as 15 µM and the CC50 was over 40 µM.
For `O=C(/C=C/c1cccs1)Nc1cccc(NC(=O)/C=C/c2cccs2)n1`, in that order: 10.4 µM, over 100 µM and 28 µM.
Turning to `O=C(CSc1nnc(-c2cccs2)o1)OC1CCCCC1`, the IC50 is 2.23 µM and the IC90 was 7.65 µM.
As to `O=C(OCc1cccc2ccccc12)c1ccc2c(=O)[nH]c(CN3CCOCC3)nc2c1`, the IC50 was 0.478 µM, the IC90 was over 100 µM and the CC50 is over 40 µM.
As for `CC(=O)Nc1nc(NC(=O)/C=C/c2ccccc2)n(-c2ccccc2)n1`, the IC50 is 3.63 µM, the 90% effect concentration (IC90) is 8.76 µM and the cytotoxic concentration (CC50) was determined as 27.7 µM.
On to `Cc1ccc(NC(=O)COc2ccc(-n3ccnc3)cc2)cc1Cl`, for which the IC50 is 3.82 µM and the IC90 came out at 12.2 µM.
With `N#C/C(=C\c1c[nH]c2ccccc12)C(=O)Nc1ncc(Cc2ccc(Cl)cc2Cl)s1`, the IC50 is 11.7 µM, the IC90 worked out at 13.5 µM and the CC50 was over 40 µM.
In the same order, the values of `CCOC(=O)COc1ccc(/C=C2/SC(=Nc3ccccc3)N(Cc3cccnc3)C2=O)cc1OC` are 10.4 µM, over 100 µM and over 40 µM.
`N=c1c2c(-c3ccccc3)c(-c3ccccc3)n(Cc3ccco3)c2ncn1Cc1ccccc1`: the half-inhibitory concentration (IC50) is 2.75 µM, the IC90 came out at 3.17 µM and the CC50 was found to be 6.49 µM.
In the same order, the values of `OCCN1CCN(CC(O)COc2ccc(C34CC5CC(CC(C5)C3)C4)cc2)CC1` (stereo not drawn) are 9.56 µM, 15.2 µM and 9.85 µM.
As to `Cc1ccc(C(=O)CNc2ccc(C)c(Cl)c2)cc1`, the IC90 was over 100 µM.
For `COc1ccc(NC2(c3ccc(Cl)cc3)C(=O)c3ccccc3C2=O)cc1`, the IC90 is over 100 µM.
As to `Cc1sc2nc[nH]c(=S)c2c1-c1ccccc1`, the IC50 is 32.3 µM, the IC90 is over 100 µM and the CC50 is over 40 µM.
In the case of `CC1(C)Cc2c(C#N)c(N3CCN(C(=O)c4ccccc4)CC3)nc(Cc3ccccc3)c2CO1`, the IC50 is 10.5 µM, the IC90 is 18.7 µM and the CC50 was over 40 µM.
As to `COc1ccc(-c2cc(O)cc(O)c2)cc1`, the IC50 is 8.79 µM and the IC90 was over 100 µM.
For `COc1cccc(/C=C/C(=O)c2cccc([N+](=O)[O-])c2)c1`, the IC50 is 6.89 µM, the IC90 is over 100 µM and the CC50 was 35.9 µM.
For the compound `COc1ccc(C(=O)Oc2cccc3cccnc23)cc1[N+](=O)[O-]`, the IC50 was 4.12 µM, the IC90 came to 4.93 µM and the CC50 amounted to 39 µM.
In the case of `N#Cc1c(N2CCN(C(=O)c3ccco3)CC2)nc(-c2ccccc2)c2c1CCCC2`, the IC50 was 9.52 µM, the IC90 is 12.2 µM and the CC50 was found to be 24.1 µM.
As for `CNC(=O)c1csc(-c2ccc(Cl)cc2)n1`, the IC50 is 38.6 µM and the IC90 is over 100 µM.
For `O=C(NCc1ccco1)c1cnn2c1NC(c1ccc(Br)cc1)CC2C(F)(F)F` (stereo not drawn), the IC50 was 1.51 µM, the IC90 is 1.71 µM and the CC50 was over 40 µM.
`Cn1cnnc1SCc1ccc(-c2ccc(Br)cc2)o1` registered an IC90 of over 100 µM and a CC50 of over 40 µM.
On to `O=C(Oc1cccc(-c2cnc3ccccc3n2)c1)c1ccco1`, for which the IC50 was 1.39 µM and the IC90 was over 100 µM.
`Cc1cc(Cl)cc(C)c1OCCCCn1ccnc1`: the 50% inhibitory concentration (IC50) was 9.33 µM, the IC90 was found to be 12.7 µM and the CC50 was over 40 µM.
The compound `CSc1ccc(NC(=O)N2CC=C(n3c(=O)[nH]c4ccccc43)CC2)cc1` gave a CC50 of over 40 µM.
As for `Cc1cc(NC(=O)CCN2C(=O)C3C4C=CC(C4)C3C2=O)ccc1Br` (stereo not drawn), the IC50 is 35.3 µM and the IC90 was over 100 µM.
As for `Cc1ccc(NC(=O)CSc2ccc(-c3ccccn3)nn2)cc1`, the IC50 is 1.98 µM, the IC90 amounted to 2.74 µM and the CC50 was over 40 µM.
Take `CCC(C)NC(=O)c1c(N)n(/N=C/c2ccccn2)c2nc3ccccc3nc12` (stereo not drawn): the IC50 is 5.18 µM, the IC90 was found to be 7.46 µM and the CC50 is over 40 µM.
Take `COc1cc(OC)c2c(-c3ccccc3)cc(=O)oc2c1C(CCN1CCCCC1)c1ccc(N(C)C)cc1` (stereo not drawn): the IC50 is 8.78 µM, the IC90 worked out at 12.1 µM and the CC50 is 20.4 µM.
For `Nc1scc(-c2ccncc2)c1Cl`, in that order: 5.32 µM, over 100 µM and over 40 µM.
Take `O=C(Nc1nc(-c2ccc(-c3ccccc3)cc2)cs1)c1cnccn1`: the IC90 is over 100 µM and the CC50 is over 40 µM.
Consider `O=C(Nc1cc(Oc2ccccc2)cc([N+](=O)[O-])c1)C12CC3CC(C1)CC(n1cnc(Cl)n1)(C3)C2`, for which the IC50 is 4.19 µM, the IC90 was over 100 µM and the CC50 is over 40 µM.
With `COc1cc(OC)c2c(-c3ccccc3)cc(=O)oc2c1C(CCN1CCCCC1)c1ccc2c(c1)OCO2` (stereo not drawn), the IC50 was 9.18 µM, the IC90 amounted to 12.8 µM and the CC50 was 13.6 µM.
Turning to `O=C1c2cccc3c([N+](=O)[O-])ccc(c23)C(=O)N1CC1CCCO1` (stereo not drawn), the IC50 was 3.76 µM, the IC90 was found to be 12.5 µM and the cytotoxic concentration (CC50) came out at 18.1 µM.
With `O=c1[nH][nH]c(-c2ccccc2O)c1C(C[N+](=O)[O-])c1ccc(Br)cc1` (stereo not drawn), the IC50 is 11.2 µM, the IC90 worked out at 24.5 µM and the CC50 is 18.2 µM.
Take `COC(=O)CSc1ccc2c(N)c(C(=O)OC)sc2c1`: the IC50 was 1.68 µM and the IC90 was determined as 2.82 µM.
Turning to `COc1ccc(C)cc1N=Nc1ccc(O)c2ncccc12`, the IC50 is 31.8 µM, the IC90 is over 100 µM and the CC50 stood at 2.01 µM.
Compound `O=C(Nc1nc2ccccc2[nH]1)c1cccc([N+](=O)[O-])c1` registered an IC90 of over 100 µM.
Regarding `Cc1nn(-c2ccccc2)nc1C(=O)c1c(C)[nH]n(-c2ccccc2)c1=O`, the IC50 is 8.35 µM, the IC90 was 13.6 µM and the CC50 came to 37 µM.
In the same order, the values of `CC(C)c1ccc(NC(=O)c2snc3ccc(Cl)cc23)cc1` are 3.89 µM, over 100 µM and over 40 µM.
Take `O=C(Nc1nc2ccccc2[nH]1)c1ccc(Cl)c([N+](=O)[O-])c1`: the IC50 is 13.7 µM, the IC90 is over 100 µM and the cytotoxic concentration (CC50) is over 40 µM.
Regarding `COc1cc(/C=C(\C#N)C(=O)NC2CCCCC2C)ccc1OS(=O)(=O)c1ccc(C)cc1` (stereo not drawn), the IC90 was over 100 µM and the CC50 came out at 9.49 µM.
In turn, `CCOC(=O)c1ccc(NC(=O)Nc2ncccc2C)cc1` had a CC50 of over 40 µM.
`N=C1/C(=C/c2ccc(OC(=O)c3ccco3)cc2)C(=O)N=C2SC=CN12` displayed an IC90 of over 100 µM.
Turning to `Cn1c2c(c(=O)n(C)c1=O)C(C(F)(F)F)(C(F)(F)F)N=C(c1ccc(Cl)cc1)N2`, the IC50 was 4.92 µM, the IC90 came to 6.68 µM and the CC50 amounted to 2.61 µM.
For `COC(=O)CCn1c(C)cc(C(=O)COc2ccccc2C(N)=O)c1C`, in that order: 1.57 µM, 31.1 µM and over 40 µM.
For `CC(C)(C)c1cc(NCCCn2ccnc2)n2ncc(-c3ccc(Cl)cc3)c2n1`, in that order: 0.939 µM, 1.43 µM and 22.3 µM.
Take `O=S(=O)(Nc1nc2ccccc2nc1Nc1ccc(N2CCOCC2)cc1)c1cc(Cl)ccc1Cl`: the IC90 is over 100 µM and the CC50 came to 22.3 µM.
The compound `Cc1cc(C(=O)Cn2cncn2)c(C)n1CCc1ccc(F)cc1` returned an IC90 of over 100 µM.
For `O=[N+]([O-])c1ccc(-n2nnnc2-c2ccccc2)c([N+](=O)[O-])c1`, the IC50 is 5.8 µM, the IC90 was 9.88 µM and the CC50 was 10.7 µM.
For the compound `Cc1cc(C)n(-c2nc(SCC(=O)O)c3c4c(sc3n2)COC(C)(C)C4)n1`, the IC50 was 9.72 µM, the IC90 was over 100 µM and the CC50 is over 40 µM.
As to `COCCCN=C1NN=C(c2cc(C)n(Cc3ccccc3Cl)c2C)CS1`, the IC50 was 11.3 µM, the IC90 was determined as 12.1 µM and the CC50 stood at 16.3 µM.
The compound `COc1ccc(N/C=C/C(=O)c2ccc(Cl)cc2)cc1` registered a CC50 of over 40 µM.
`O=C1Nc2ccccc2C1=Nc1ccc(S(=O)(=O)Nc2nccs2)cc1`: the IC50 was 4.54 µM and the IC90 amounted to 11.3 µM.
Consider `O=C(COc1ccc(Nc2ccccc2)cc1)OCC(=O)N1CCCCC1`, for which the IC50 was 19.5 µM and the IC90 was over 100 µM.
In the same order, the values of `CCOC(=O)COc1cc(OCC(=O)OCC)c2c(=O)cc(-c3ccccc3)oc2c1` are 1.37 µM and 3.74 µM.
For `O=C(Nc1ccc(F)c(Cl)c1)Nc1csc2ccccc12`, the IC50 is 54.9 µM, the IC90 is over 100 µM and the CC50 came to 7.06 µM.
For the compound `Cc1ccc(CNc2nc(-c3cccs3)nc3ccccc23)cc1`, the IC50 was 9.84 µM, the IC90 was 18.7 µM and the CC50 was over 40 µM.
`O=C(O)/C=C/C(=O)Nc1ccc(-n2nccc2C(F)(F)F)cc1` had an IC90 of over 100 µM.
For the compound `COc1cc(CNCc2ccccn2)ccc1OCc1ccc(Cl)cc1Cl`, the IC50 is 6.04 µM, the IC90 was 9.96 µM and the CC50 is over 40 µM.

The IC50 is the point on the concentration scale where inhibition reaches its midpoint. The term IC90 denotes the concentration needed for an effect of 90%. A high value points to a need for much substance. Broadly, the CC50 is the concentration that lowers cell viability or growth by half.
